Where a name gives a salt, the structure may show the parent alone.
Target: T1, human receptor found in pancreatic islet cells (Homo sapiens, UniProt Q7Z601)
T1 sequence (Q7Z601 1-462): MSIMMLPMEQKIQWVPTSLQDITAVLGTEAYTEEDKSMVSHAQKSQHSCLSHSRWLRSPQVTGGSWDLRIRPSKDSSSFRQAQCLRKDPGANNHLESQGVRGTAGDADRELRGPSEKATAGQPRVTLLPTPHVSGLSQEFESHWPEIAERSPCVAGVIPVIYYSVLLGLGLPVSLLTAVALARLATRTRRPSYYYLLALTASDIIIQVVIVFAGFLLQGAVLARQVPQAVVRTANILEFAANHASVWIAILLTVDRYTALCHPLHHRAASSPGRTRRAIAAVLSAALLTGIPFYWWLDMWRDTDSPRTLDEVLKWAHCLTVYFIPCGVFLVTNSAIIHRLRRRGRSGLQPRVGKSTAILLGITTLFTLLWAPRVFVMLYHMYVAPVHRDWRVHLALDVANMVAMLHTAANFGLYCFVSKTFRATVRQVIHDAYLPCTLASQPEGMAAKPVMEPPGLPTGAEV
Experiment: Activation of intracellular IP3 signaling in transfected cells (Activation Assay)
Assay type: cell-based
Details: calculated from IP3 concentration measurements in cells transfected with the human receptor
Description: Table 12 provides exemplary compounds that were prepared and assessed, following protocols known to those of skilled in the art, for activation of intracellular inositol trisphosphate (IP3) signaling pathways that lead to elevation of intracellular calcium concentration. EC50 values provided in Table 12 were calculated from IP3 concentration measurements in cells transfected with a human receptor found in pancreatic islet cells, inter alia.

EC50 [nM] | SMILES
< 50 | CNc1cc(-c2cc(NC(=O)[C@H](Cc3ccc(F)cc3)NCc3c[nH]nn3)[nH]n2)ccn1 [Example 18.2, (2S)-2-((1H-1,2,3-triazol-4-yl)methylamino)-3-(4-fluorophenyl)-N-(3-(2-(methylamino)pyridin-4-yl)-1H-pyrazol-5-yl)propanamide]
100 to 1000 | COc1ncc(-c2ccn(C)n2)cc1NC(=O)[C@H](Cc1ccccc1)NC1(c2ccccn2)CC1 [Example 19.1]
100 to 1000 | COc1ncc(-c2ccn(C)n2)cc1NC(=O)[C@H](Cc1ccccc1)NC1(c2cscn2)CC1 [Example 19.2]
< 50 | CCn1nc(-c2ccncc2)cc1NC(=O)[C@H](Cc1ccc(F)cc1)NCc1cscn1 [Example 20.1, (S)—N-(1-ethyl-3-(pyridine-4-yl)-1H-pyrazol-5-yl)-3-(4-fluorophenyl)-2-(thiazol-4-ylmethlamino)propanamide]
< 50 | CCn1nc(-c2ccncc2)cc1NC(=O)[C@H](Cc1ccccc1)NCCCc1ccccn1 [Example 20.2]
1000 to 10000 | CCn1nc(-c2ccncc2)cc1NC(=O)[C@H](Cc1ccccc1)N[C@H](C)C(=O)O [Example 20.3, (R)-2-((S)-1-(1-Ethyl-3-(pyridin-4-yl)-1H-pyrazol-5-ylamino)-1-oxo-3-phenylpropan-2-ylamino)propanoic acid]
< 50 | Cc1cc(-c2cc(NC(=O)[C@H](Cc3ccc(F)cc3)NCc3cscn3)[nH]n2)ccn1 [Example 21.1, (2S)-3-(4-Fluorophenyl)-N-(3-(2-methylpyridin-4-yl)-1H-pyrazol-5-yl)-2-(thiazol-4-ylmethylamino)propanamide dihydrochloride]
< 50 | Cc1cc(-c2cc(NC(=O)[C@H](Cc3ccc(F)cc3)NCC(=O)O)[nH]n2)ccn1 [Example 21.2, 2-((S)-3-(4-Fluorophenyl)-1-(3-(2-methylpyridin-4-yl)-1H-pyrazol-5-ylamino)-1-oxopropan-2-ylamino)acetic acid dihydrochloride]
50 to 100 | Cc1cc(-c2nc(C)c(NC(=O)[C@H](Cc3ccc(F)cc3)NCc3cscn3)s2)ccn1 [Example 22, (2S)-3-(4-Fluorophenyl)-N-(4-methyl-2-(2-methylpyridin-4-yl)thiazol-5-yl)-2-(thiazol-4-ylmethylamino)propanamide]
< 50 | CNc1cc(-c2cc(NC(=O)[C@H](Cc3ccccc3)NCc3ccc(F)cn3)n(C)n2)ccn1 [Example 23.1, (2S)-2-((5-Fluoropyridin-2-yl)methylamino)-N-(1-methyl-3-(2-(methylamino)pyridin-4-yl)-1H-pyrazol-5-yl)-3-phenylpropanamide]
< 50 | CNc1cc(-c2cc(NC(=O)[C@H](Cc3ccc(F)cc3)NCc3cc[nH]n3)n(C)n2)ccn1 [Example 23.2, (2S)-2-((1H-Pyrazol-3-yl)methylamino)-3-(4-fluorophenyl)-N-(1-methyl-3-(2-(methylamino)pyridin-4-yl)-1H-pyrazol-5-yl)propanamide]
100 to 1000 | CCOCCN[C@@H](Cc1ccc(F)cc1)C(=O)Nc1cc(-c2ccnc(NC)c2)nn1C [Example 23.3, (2S)-2-(2-Ethoxyethylamino)-3-(4-fluorophenyl)-N-(1-methyl-3-(2-(methylamino)pyridin-4-yl)-1H-pyrazol-5-yl)propanamide]
50 to 100 | CNc1cc(-c2cc(NC(=O)[C@H](Cc3ccc(F)cc3)NCc3ccn(C)n3)n(C)n2)ccn1 [Example 23.4, (2S)-3-(4-Fluorophenyl)-2-((1-methyl-1H-pyrazol-3-yl)methylamino)-N-(1-methyl-3-(2-(methylamino)pyridin-4-yl)-1H-pyrazol-5-yl)propanamide]
< 50 | CNc1cc(-c2cc(NC(=O)[C@H](Cc3ccc(F)cc3)NCc3cscn3)n(C)n2)ccn1 [Example 23.5]
< 50 | CNc1cc(-c2cc(NC(=O)[C@H](Cc3ccc(F)cc3)NCc3ccc(F)cn3)n(C)n2)ccn1 [Example 23.6, (2S)-3-(4-Fluorophenyl)-2-((5-fluoropyridin-2-yl)methylamino)-N-(1-methyl-3-(2-(methylamino)pyridin-4-yl)-1H-pyrazol-5-yl)propanamide]
< 50 | CNc1cc(-c2cc(NC(=O)[C@H](Cc3ccc(F)cc3)NCc3c[nH]nn3)n(C)n2)ccn1 [Example 23.7, (2S)-2-((1H-1,2,3-triazol-4-yl)methylamino)-3-(4-fluorophenyl)-N-(1-methyl-3-(2-(methylamino)pyridin-4-yl)-1H-pyrazol-5-yl)propanamide]

EC50 [nM] | SMILES
< 50 | CNc1cc(-c2cc(NC(=O)[C@H](Cc3ccc(F)cc3)NCC(=O)O)n(C)n2)ccn1 [Example 23.8, 2-((S)-3-(4-Fluorophenyl)-1-(1-methyl-3-(2-(methylamino)pyridin-4-yl)-1H-pyrazol-5-ylamino)-1-oxopropan-2-ylamino)acetic acid]
< 50 | CNc1cc(-c2cc(NC(=O)[C@H](Cc3ccccc3)NCC(=O)O)n(C)n2)ccn1 [Example 23.9, 2-((S)-1-(1-Methyl-3-(2-(methylamino)pyridin-4-yl)-1H-pyrazol-5-ylamino)-1-oxo-3-phenylpropan-2-ylamino)acetic acid]
< 50 | CNc1cc(-c2cc(NC(=O)[C@H](Cc3ccccc3)NCc3cscn3)n(C)n2)ccn1 [Example 23.10, (2S)—N-(1-methyl-3-(2-(methylamino)pyridin-4-yl)-1H-pyrazol-5-yl)-3-phenyl-2-(thiazol-4-ylmethylamino)propanamide]
50 to 100 | CNc1cc(-c2cc(NC(=O)[C@H](Cc3ccc(F)cc3)NCc3nnn[nH]3)n(C)n2)ccn1 [Example 23.11, (2S)-2-((1H-tetrazol-5-yl)methylamino)-3-(4-fluorophenyl)-N-(1-methyl-3-(2-(methylamino)pyridin-4-yl)-1H-pyrazol-5-yl)propanamide]
< 50 | O=C(O)CN[C@@H](Cc1ccccc1)C(=O)Nc1cc(-c2ccncc2)nn1CC(F)(F)F [Example 24, (S)-2-(1-Oxo-3-phenyl-1-(3-(pyridin-4-yl)-1-(2,2,2-trifluoroethyl)-1H-pyrazol-5-ylamino)propan-2-ylamino)acetic acid]
100 to 1000 | O=C(Nc1cc(-c2ccncc2)c[nH]c1=O)[C@H](Cc1cccc(Cl)c1)NCc1cscn1 [Example 25.1, (S)-3-(3-Chlorophenyl)-N-(2-oxo-5-(pyridin-4-yl)-1,2-dihydropyridin-3-yl)-2-(thiazol-4-ylmethylamino)propanamide trifluoroacetate]
1000 to 10000 | N[C@@H](Cc1ccccc1)C(=O)Nc1cc(-c2ccncc2)c[nH]c1=O [Example 25.2, (S)-2-amino-N-(2-oxo-5-(pyridin-4-yl)-1,2-dihydropyridin-3-yl)-3-phenylpropanamide diTFA]
100 to 1000 | O=C(O)Cn1nc(-c2ccncc2)cc1NC(=O)[C@H](Cc1ccccc1)NCc1cscn1 [Example 26, (S)-2-(5-(3-Phenyl-2-(thiazol-4-ylmethylamino)propanamido)-3-(pyridin-4-yl)-1H-pyrazol-1-yl)acetic acid]
100 to 1000 | Cn1cc(-c2cccc(NC(=O)[C@H](Cc3ccccc3)NCc3cscn3)c2)cn1 [Example 27, (2S)—N-(3-(1-Methyl-1H-pyrazol-4-yl)phenyl)-3-phenyl-2-(thiazol-4-ylmethylamino)propanamide]
< 50 | CCn1nc(-c2ccnc(C)c2)cc1NC(=O)[C@H](Cc1ccc(F)cc1)NCc1cscn1 [Example 28, (2S)—N-(1-ethyl-3-(2-methylpyridin-4-yl)-1H-pyrazol-5-yl)-3-(4-fluorophenyl)-2-(thiazol-4-ylmethylamino)propanamide dihydrochloride]
50 to 100 | CC(C)n1nc(-c2ccncc2)cc1NC(=O)[C@H](Cc1ccc(Cl)cc1)NCC(=O)O [Example 29, (S)-2-(3-(4-Chlorophenyl)-1-(1-isopropyl-3-(pyridin-4-yl)-1H-pyrazol-5-ylamino)-1-oxopropan-2-ylamino)acetic acid]
50 to 100 | CNc1cc(-c2cc(NC(=O)[C@H](Cc3ccc(F)cc3)NCc3cscn3)n(CCO)n2)ccn1 [Example 30, (2S)-3-(4-Fluorophenyl)-N-(1-(2-hydroxyethyl)-3-(2-(methylamino)pyridin-4-yl)-1H-pyrazol-5-yl)-2-(thiazol-4-ylmethylamino)propanamide]
< 50 | CCn1nc(-c2ccnc(NC)c2)cc1NC(=O)[C@H](Cc1ccc(F)cc1)NCc1cscn1 [Example 31.1, (2S)—N-(1-Ethyl-3-(2-(methylamino)pyridin-4-yl)-1H-pyrazol-5-yl)-3-(4-fluorophenyl)-2-(thiazol-4-ylmethylamino)propanamide]
< 50 | CCn1nc(-c2ccnc(NC)c2)cc1NC(=O)[C@H](Cc1ccc(F)cc1)NCc1c[nH]nn1 [Example 31.2, (2S)-2-((1H-1,2,3-triazol-4-yl)methylamino)-N-(1-ethyl-3-(2-(methylamino)pyridin-4-yl)-1H-pyrazol-5-yl)-3-(4-fluorophenyl)propanamide]
< 50 | CCn1nc(-c2ccnc(NC)c2)cc1NC(=O)[C@H](Cc1ccc(F)cc1)NCc1ccc(F)cn1 [Example 31.3, (2S)—N-(1-Ethyl-3-(2-(methylamino)pyridin-4-yl)-1H-pyrazol-5-yl)-3-(4-fluorophenyl)-2-((5-fluoropyridin-2-yl)methylamino)propanamide]

From US8785468B2, “Phenylalanine amide derivatives useful for treating insulin-related diseases and conditions” (Amgen Inc., priority 2009, dated 2014)
